Target: T1, 5-LO (Homo sapiens, UniProt P09917)
T1 construct: incubating a test compound with heparinised human blood, prior to challenge with the calcium ionophore A23187; endogenous in cells; host or cells: blood cells in heparinised human whole blood, challenged with A23187
T1 sequence (P09917 1-674): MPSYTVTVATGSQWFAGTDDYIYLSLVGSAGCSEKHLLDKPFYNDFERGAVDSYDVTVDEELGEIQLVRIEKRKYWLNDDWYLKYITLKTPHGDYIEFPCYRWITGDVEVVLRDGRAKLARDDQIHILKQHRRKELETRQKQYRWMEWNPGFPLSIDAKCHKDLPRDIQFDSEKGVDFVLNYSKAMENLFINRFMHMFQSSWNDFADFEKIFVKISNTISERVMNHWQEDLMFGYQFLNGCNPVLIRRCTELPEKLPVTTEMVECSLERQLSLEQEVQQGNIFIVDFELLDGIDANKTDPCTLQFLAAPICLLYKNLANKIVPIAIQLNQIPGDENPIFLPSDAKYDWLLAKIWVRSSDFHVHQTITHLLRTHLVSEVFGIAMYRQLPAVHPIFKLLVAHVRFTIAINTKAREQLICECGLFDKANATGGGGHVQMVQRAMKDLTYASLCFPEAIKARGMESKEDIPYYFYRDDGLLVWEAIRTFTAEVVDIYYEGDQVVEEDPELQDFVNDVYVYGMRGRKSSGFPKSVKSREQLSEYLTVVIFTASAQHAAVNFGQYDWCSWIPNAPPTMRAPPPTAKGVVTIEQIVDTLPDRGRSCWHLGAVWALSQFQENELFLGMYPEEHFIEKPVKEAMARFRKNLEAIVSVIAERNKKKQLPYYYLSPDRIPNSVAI
Assay: test a) in vitro heparinised human blood challenged with calcium ionophore A23187; LTB4 by radioimmunoassay
Assay type: cell-based
Description: a) An in vitro assay system involving incubating a test compound with heparinised human blood, prior to challenge with the calcium ionophore A23187 and then indirectly measuring the inhibitory effects on 5-LO by assaying the amount of LTB4 using specific radioimmunoassays described by Carey and Forder (F. Carey and R. A. Forder, Prostaglandins, Leukotrienes Med., 1986, 22, 57; Prostaglandins, 1984, 28, 666; Brit. J. Pharmacol. 1985, 84, 34 P) which involve the use of a protein-LTB4 conjugate produced using the procedure of Young et alia (Prostaglandins, 1983, 26(4), 605-613). The effects of a test compound on the enzyme cyclooxygenase (which is involved in the alternative metabolic pathway for arachidonic acid and gives rise to prostaglandins, thromboxanes and related metabolites) may be measured at the same time using the specific radioimmunoassay for thromboxane B2 (TxB2) described by Carey and Forder (see above). This test provides an indication of the effects of a test compound against 5-LO and also cyclooxygenase in the presence of blood cells and proteins. It permits the selectivity of the inhibitory effect on 5-LO or cyclooxygenase to be assessed.

**Q.** How did the IC50 turn out when `CCOC(=O)C(CC)(CC)c1cccc(OCc2ccc3ccccc3c2)c1` [Example 1, ethyl 2-ethyl-2-[3-(naphth-2-ylmethoxy)phenyl]butyrate] was run?
**A.** The IC50 was 200 nM.
